From the supplement of paper PMC10307832

Legend:
Assay in all cases: relative viability (nuclei count vs DMSO), 5 days (fraction); higher = more cells survive
[1] = compound: O=S(=O)(c1ccccc1)N(CC(F)(F)F)c1ccc(C(O)(C(F)(F)F)C(F)(F)F)cc1
In short: (§1)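 A plate was accepted only when its control CV was below 25% and the cells had doubled at least once. Viability is defined from nuclear counts as treated wells divided by vehicle wells, with the median taken across plates. That median covers lung cancer cell lines grown in 1536-well plates, dosed by pinning at five √10-spaced library-drug concentrations, and counted in MetaXpress from 4× Hoechst images after 5 days.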

RO-3306 = compound: C1=CC2=C(C=CC(=C2)C=C3C(=O)NC(=NCC4=CC=CS4)S3)N=C1 [RO-3306]
In short: as §1

Foretinib = compound: COc1cc2c(Oc3ccc(NC(=O)C4(C(=O)Nc5ccc(F)cc5)CC4)cc3F)ccnc2cc1OCCCN1CCOCC1 [Foretinib] (anchor plate); details: 0.25 µM
In short: as §1

| Cell Line | relative viability ([1]; 0.8 µM) | relative viability ([1]; 2.53 µM) | relative viability ([1]; 8 µM) | relative viability (RO-3306; 0.01 µM) | relative viability (RO-3306; 0.03162 µM) | relative viability (RO-3306; 0.1 µM) | relative viability (RO-3306; 0.3162 µM) | relative viability (RO-3306; 1 µM) | relative viability (Foretinib) |
| --- | --- | --- | --- | --- | --- | --- | --- | --- | --- |
| 201T | 1.02 | 0.928 | 1.06 | 1.06 | 0.969 | 0.956 | 0.987 | 0.746 | 1.16 |
| A549 | 1.07 | 0.914 | 0.886 | 1.13 | 0.811 | 0.994 | 1 | 1.05 | 0.951 |
| A-427 | 1.08 | 0.929 | 1.21 | 1.06 | 0.94 | 1 | 1.02 | 0.574 | 1.08 |
| ABC-1 | 0.758 | 0.843 | 1.03 | 0.94 | 0.769 | 0.901 | 0.887 | 0.817 | 1.07 |
| BEN | 0.991 | 0.895 | 0.87 | 0.903 | 0.888 | 0.894 | 1.03 | 0.976 | 0.668 |
| CAL-12T | 0.88 | 0.804 | 0.811 | 1.01 | 0.884 | 0.906 | 0.977 | 1.07 | 1.13 |
| COR-L23 | 1.13 | 0.921 | 0.858 | 1.03 | 0.892 | 1.04 | 1.04 | 1.14 | 0.949 |
| COR-L 105 | 0.947 | 0.786 | 0.918 | 0.859 | 0.784 | 0.798 | 0.906 | 0.948 | 1.07 |
| Calu-6 | 0.982 | 0.876 | 0.858 | 1.12 | 0.893 | 1.02 | 1 | 1.06 | 0.861 |
| ChaGo-K-1 | 1.14 | 0.998 | 1.06 | 1.03 | 0.933 | 1.01 | 1.04 | 0.699 | 0.921 |
| EBC-1 | 0.934 | 0.769 | 0.721 | 1.04 | 0.807 | 1.01 | 1.14 | 1.01 | 0.108 |
| EKVX | 0.93 | 0.893 | 0.836 | 1 | 0.888 | 1 | 1.03 | 0.915 | 0.886 |
| EMC-BAC-2 | 0.996 | 1.01 | 0.966 | 0.943 | 0.844 | 0.915 | 1.12 | 0.616 | 1.02 |
| EPLC-272H | 0.942 | 0.929 | 0.982 | 0.866 | 0.73 | 0.921 | 0.901 | 0.791 | 0.723 |
| H3255 | 0.913 | 0.808 | 0.84 | 1.02 | 0.913 | 0.995 | 0.946 | 0.93 | 0.881 |
| HARA | 0.933 | 0.803 | 0.962 | 0.96 | 0.909 | 0.886 | 0.985 | 1.03 | 0.959 |
| HCC-15 | 1.04 | 0.871 | 0.861 | 1.13 | 0.897 | 0.998 | 1.07 | 0.992 | 1.05 |
| HCC-44 | 0.98 | 0.988 | 0.97 | 0.985 | 1 | 1.02 | 0.957 | 0.901 |  |
